Data taken from patent US20260262643A1, “HERBICIDAL BENZOXAZINES” (FMC CORPORATION, priority 2022, published 2026).

How the values were obtained:
green foxtail [1] = assay: Test C postemergence; assay type: in vivo, Setaria viridis; conditions: 10 days
Summary of the method: (§1)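 Test material, in non-phytotoxic solvent with surfactant, was sprayed on the soil directly after seeding (preemergence) or on young plants of 2–10 cm with one to two leaves (postemergence). Greenhouse, 10 days; 0–100 visual control scale.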

barnyardgrass [2] = assay: Test C postemergence; assay type: in vivo, Echinochloa crusgalli; conditions: 10 days
Summary of the method: as §1

corn [3] = assay: Test C preemergence; assay type: in vivo, Zea mays; conditions: 0 to 100 scale (0 no effect, 100 complete control); for Plant response rating, Corn: Preemergence, 500 g ai/ha, visual rating after 10 days; for Corn plant response rating: Test C, preemergence, 125 g ai/ha
Summary of the method: as §1

ducksalad = assay: Test D flooded paddy test; assay type: in vivo, Heteranthera limosa; conditions: 250 g ai/ha, applied to paddy water, visual rating after 13 to 14 days, scale 0 to 100 (0 no effect, 100 complete control)
Summary of the method: (§2)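 Visual ratings from 0, meaning no effect, to 100, meaning complete control, were assigned against untreated controls 13 to 14 days after compounds were added to the floodwater of pots kept 3 cm deep, with plants at the 2-leaf stage.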

blackgrass [4] = assay: Test C postemergence; assay type: in vivo, Alopecurus myosuroides; conditions: 10 days
Summary of the method: as §1

ryegrass, Italian [5] = assay: Test C preemergence; assay type: in vivo, Lolium multiflorum; conditions: 0 to 100 scale (0 no effect, 100 complete control); for Plant response rating, Ryegrass, Italian: Preemergence, 500 g ai/ha, visual rating after 10 days; for Ryegrass, Italian plant response rating: Test C, preemergence, 125 g ai/ha
Summary of the method: as §1

kochia [6] = assay: Test C preemergence; assay type: in vivo, Bassia scoparia; conditions: 0 to 100 scale (0 no effect, 100 complete control); for Plant response rating, Kochia: Preemergence, 500 g ai/ha, visual rating after 10 days; for Kochia plant response rating: Test C, preemergence, 125 g ai/ha
Summary of the method: as §1

rice = assay: Test D flooded paddy test; assay type: in vivo, Oryza sativa; conditions: 250 g ai/ha, applied to paddy water, visual rating after 13 to 14 days, scale 0 to 100 (0 no effect, 100 complete control)
Summary of the method: as §2

ryegrass, Italian [7] = assay: Test C postemergence; assay type: in vivo, Lolium multiflorum; conditions: 10 days
Summary of the method: as §1

soybean [8] = assay: Test C postemergence; assay type: in vivo, Glycine max; conditions: 10 days
Summary of the method: as §1

corn [9] = assay: Test C postemergence; assay type: in vivo, Zea mays; conditions: 10 days
Summary of the method: as §1

oat, wild [10] = assay: Test C preemergence; assay type: in vivo, Avena fatua; conditions: 0 to 100 scale (0 no effect, 100 complete control); for Plant response rating, Oat, Wild: Preemergence, 500 g ai/ha, visual rating after 10 days; for Oat, Wild plant response rating: Test C, preemergence, 125 g ai/ha
Summary of the method: as §1

barnyardgrass [11] = assay: Test C preemergence; assay type: in vivo, Echinochloa crusgalli; conditions: 0 to 100 scale (0 no effect, 100 complete control); for Plant response rating, Barnyardgrass: Preemergence, 500 g ai/ha, visual rating after 10 days; for Barnyardgrass plant response rating: Test C, preemergence, 125 g ai/ha
Summary of the method: as §1

ragweed [12] = assay: Test C postemergence; assay type: in vivo, Ambrosia artemisiifolia; conditions: 10 days
Summary of the method: as §1

galium = assay: Test C postemergence; assay type: in vivo, Galium aparine; conditions: 10 days
Summary of the method: as §1

horseweed = assay: Test C postemergence; assay type: in vivo, Erigeron canadensis; conditions: 10 days
Summary of the method: as §1

kochia [13] = assay: Test C postemergence; assay type: in vivo, Bassia scoparia; conditions: 10 days
Summary of the method: as §1

pigweed, palmer [14] = assay: Test C preemergence; assay type: in vivo, Amaranthus palmeri; conditions: 0 to 100 scale (0 no effect, 100 complete control); for Plant response rating, Pigweed, Palmer: Preemergence, 500 g ai/ha, visual rating after 10 days; for Pigweed, Palmer plant response rating: Test C, preemergence, 125 g ai/ha
Summary of the method: as §1

soybean [15] = assay: Test C preemergence; assay type: in vivo, Glycine max; conditions: 0 to 100 scale (0 no effect, 100 complete control); for Plant response rating, Soybean: Preemergence, 500 g ai/ha, visual rating after 10 days; for Soybean plant response rating: Test C, preemergence, 125 g ai/ha
Summary of the method: as §1

ragweed [16] = assay: Test C preemergence; assay type: in vivo, Ambrosia artemisiifolia; conditions: 0 to 100 scale (0 no effect, 100 complete control); for Plant response rating, Ragweed: Preemergence, 500 g ai/ha, visual rating after 10 days; for Ragweed plant response rating: Test C, preemergence, 125 g ai/ha
Summary of the method: as §1

pigweed, palmer [17] = assay: Test C postemergence; assay type: in vivo, Amaranthus palmeri; conditions: 10 days
Summary of the method: as §1

wheat [18] = assay: Test C postemergence; assay type: in vivo, Triticum aestivum; conditions: 10 days
Summary of the method: as §1

blackgrass [19] = assay: Test C preemergence; assay type: in vivo, Alopecurus myosuroides; conditions: 0 to 100 scale (0 no effect, 100 complete control); for Plant response rating, Blackgrass: Preemergence, 500 g ai/ha, visual rating after 10 days; for Blackgrass plant response rating: Test C, preemergence, 125 g ai/ha
Summary of the method: as §1

barnyardgrass [20] = assay: Test D flooded paddy test; assay type: in vivo, Echinochloa crus-galli; conditions: 250 g ai/ha, applied to paddy water, visual rating after 13 to 14 days, scale 0 to 100 (0 no effect, 100 complete control)
Summary of the method: as §2

oat, wild [21] = assay: Test C postemergence; assay type: in vivo, Avena fatua; conditions: 10 days
Summary of the method: as §1

wheat [22] = assay: Test C preemergence; assay type: in vivo, Triticum aestivum; conditions: 0 to 100 scale (0 no effect, 100 complete control); for Plant response rating, Wheat: Preemergence, 500 g ai/ha, visual rating after 10 days; for Wheat plant response rating: Test C, preemergence, 125 g ai/ha
Summary of the method: as §1

sedge, umbrella = assay: Test D flooded paddy test; assay type: in vivo, Cyperus difformis; conditions: 250 g ai/ha, applied to paddy water, visual rating after 13 to 14 days, scale 0 to 100 (0 no effect, 100 complete control)
Summary of the method: as §2

green foxtail [23] = assay: Test C preemergence; assay type: in vivo, Setaria viridis; conditions: 0 to 100 scale (0 no effect, 100 complete control); for Plant response rating, Foxtail, Green: Preemergence, 500 g ai/ha, visual rating after 10 days; for Foxtail, Green plant response rating: Test C, preemergence, 125 g ai/ha
Summary of the method: as §1

[24] = 125 g ai/ha, postemergence, 0 to 100 scale, 0 no effect, 100 complete control
[25] = Postemergence, 500 g ai/ha, visual 0 to 100 scale (0 no effect, 100 complete control)

CCc1ncn(-c2ccc(C)c(C(=O)N3C[C@H](COC)Oc4c(Cl)cccc43)c2)n1 [Compound 265]
Plant response rating, Foxtail, Green (green foxtail [1]; [24]): 90
Plant response rating, Foxtail, Green (green foxtail [1]; [25]): 90
Plant response rating, Barnyardgrass (barnyardgrass [2]; [24]): 70
Plant response rating, Barnyardgrass (barnyardgrass [2]; [25]): 100
Plant response rating, Corn (corn [3]): 90
Corn plant response rating (corn [3]): 30
Plant response rating, Ducksalad (Flood) (ducksalad): 75
Plant response rating, Blackgrass (blackgrass [4]; [24]): 90
Plant response rating, Blackgrass (blackgrass [4]; [25]): 90
Plant response rating, Ryegrass, Italian (ryegrass, Italian [5]): 90
Ryegrass, Italian plant response rating (ryegrass, Italian [5]): 80
Plant response rating, Kochia (kochia [6]): 90
Kochia plant response rating (kochia [6]): 80
Plant response rating, Rice (Flood) (rice): 25
Plant response rating, Ryegrass, Italian (ryegrass, Italian [7]; [24]): 80
Plant response rating, Ryegrass, Italian (ryegrass, Italian [7]; [25]): 90
Plant response rating, Soybean (soybean [8]; [24]): 100
Plant response rating, Soybean (soybean [8]; [25]): 100
Plant response rating, Corn (corn [9]; [24]): 60
Plant response rating, Corn (corn [9]; [25]): 70
Plant response rating, Oat, Wild (oat, wild [10]): 90
Oat, Wild plant response rating (oat, wild [10]): 60
Plant response rating, Barnyardgrass (barnyardgrass [11]): 90
Barnyardgrass plant response rating (barnyardgrass [11]): 90
Plant response rating, Ragweed (ragweed [12]; [24]): 80
Plant response rating, Ragweed (ragweed [12]; [25]): 90
Plant response rating, Galium (galium; [24]): 100
Plant response rating, Galium (galium; [25]): 100
Plant response rating, Horseweed (horseweed; [24]): 40
Plant response rating, Horseweed (horseweed; [25]): 60
Plant response rating, Kochia (kochia [13]; [24]): 90
Plant response rating, Kochia (kochia [13]; [25]): 100
Plant response rating, Pigweed, Palmer (pigweed, palmer [14]): 100
Pigweed, Palmer plant response rating (pigweed, palmer [14]): 100
Plant response rating, Soybean (soybean [15]): 90
Soybean plant response rating (soybean [15]): 70
Plant response rating, Ragweed (ragweed [16]): 70
Ragweed plant response rating (ragweed [16]): 50
Plant response rating, Pigweed, Palmer (pigweed, palmer [17]; [24]): 70
Plant response rating, Pigweed, Palmer (pigweed, palmer [17]; [25]): 100
Plant response rating, Wheat (wheat [18]; [24]): 40
Plant response rating, Wheat (wheat [18]; [25]): 70
Plant response rating, Blackgrass (blackgrass [19]): 90
Blackgrass plant response rating (blackgrass [19]): 70
Plant response rating, Barnyardgrass (Flood) (barnyardgrass [20]): 30
Plant response rating, Oat, Wild (oat, wild [21]; [24]): 30
Plant response rating, Oat, Wild (oat, wild [21]; [25]): 80
Plant response rating, Wheat (wheat [22]): 80
Wheat plant response rating (wheat [22]): 70
Plant response rating, Sedge, Umbrella (Flood) (sedge, umbrella): 90
Plant response rating, Foxtail, Green (green foxtail [23]): 100
Foxtail, Green plant response rating (green foxtail [23]): 100

Cc1ccc(-n2cnc(C(C)(C)C)n2)cc1C(=O)N1CC(C(F)(F)F)Oc2c(Cl)cccc21 (single isomer, unassigned) [Compound 192]
Plant response rating, Foxtail, Green (green foxtail [1]; [24]): 10
Plant response rating, Foxtail, Green (green foxtail [1]; [25]): 80
Plant response rating, Barnyardgrass (barnyardgrass [2]; [24]): 20
Plant response rating, Barnyardgrass (barnyardgrass [2]; [25]): 50
Plant response rating, Corn (corn [3]): 20
Corn plant response rating (corn [3]): 20
Plant response rating, Ducksalad (Flood) (ducksalad): 0
Plant response rating, Blackgrass (blackgrass [4]; [24]): 30
Plant response rating, Blackgrass (blackgrass [4]; [25]): 30
Plant response rating, Ryegrass, Italian (ryegrass, Italian [5]): 90
Ryegrass, Italian plant response rating (ryegrass, Italian [5]): 90
Plant response rating, Kochia (kochia [6]): 100
Kochia plant response rating (kochia [6]): 60
Plant response rating, Rice (Flood) (rice): 0
Plant response rating, Ryegrass, Italian (ryegrass, Italian [7]; [24]): 40
Plant response rating, Ryegrass, Italian (ryegrass, Italian [7]; [25]): 50
Plant response rating, Soybean (soybean [8]; [24]): 100
Plant response rating, Soybean (soybean [8]; [25]): 100
Plant response rating, Corn (corn [9]; [24]): 10
Plant response rating, Corn (corn [9]; [25]): 20
Plant response rating, Oat, Wild (oat, wild [10]): 90
Oat, Wild plant response rating (oat, wild [10]): 40
Plant response rating, Barnyardgrass (barnyardgrass [11]): 90
Barnyardgrass plant response rating (barnyardgrass [11]): 60
Plant response rating, Ragweed (ragweed [12]; [24]): 90
Plant response rating, Ragweed (ragweed [12]; [25]): 100
Plant response rating, Galium (galium; [24]): 100
Plant response rating, Galium (galium; [25]): 100
Plant response rating, Horseweed (horseweed; [24]): 0
Plant response rating, Horseweed (horseweed; [25]): 30
Plant response rating, Kochia (kochia [13]; [24]): 80
Plant response rating, Kochia (kochia [13]; [25]): 100
Plant response rating, Pigweed, Palmer (pigweed, palmer [14]): 100
Pigweed, Palmer plant response rating (pigweed, palmer [14]): 90
Plant response rating, Soybean (soybean [15]): 90
Soybean plant response rating (soybean [15]): 30
Plant response rating, Ragweed (ragweed [16]): 80
Ragweed plant response rating (ragweed [16]): 10
Plant response rating, Pigweed, Palmer (pigweed, palmer [17]; [24]): 90
Plant response rating, Pigweed, Palmer (pigweed, palmer [17]; [25]): 100
Plant response rating, Wheat (wheat [18]; [24]): 20
Plant response rating, Wheat (wheat [18]; [25]): 20
Plant response rating, Blackgrass (blackgrass [19]): 80
Blackgrass plant response rating (blackgrass [19]): 70
Plant response rating, Barnyardgrass (Flood) (barnyardgrass [20]): 0
Plant response rating, Oat, Wild (oat, wild [21]; [24]): 20
Plant response rating, Oat, Wild (oat, wild [21]; [25]): 50
Plant response rating, Wheat (wheat [22]): 30
Wheat plant response rating (wheat [22]): 0
Plant response rating, Sedge, Umbrella (Flood) (sedge, umbrella): 0
Plant response rating, Foxtail, Green (green foxtail [23]): 100
Foxtail, Green plant response rating (green foxtail [23]): 100
